# Test system: Hepatitis C replicon
# Assay: HCV replicon assay (NPT ELISA readout) in Huh-7 replicon-containing cells
# Assay type: cell-based, Hepatitis C virus
# Conditions: Hepatitis C virus, 72 h; HCV replicon in Huh-7 cells, three days incubation
# Experimental: Compounds claimed herein are tested for the ability to inhibit viral replication of the Hepatitis C replicon in cultured cells in which the HCV replicon construct has been incorporated. The HCV replicon system was described by Bartenschlager, et. al (Science, 285, pp. 110-113 (1999)). The replicon system is predictive of in vivo anti-HCV activity; compounds that are active in humans uniformly evidence activity in the replicon assay.
# In this assay HCV replicon containing cells are treated with different concentrations of the test compound to ascertain the ability of the test compound to suppress replication of the HCV replicon. As a positive control, HCV replicon-containing cells are treated with different concentrations of interferon alpha, a known inhibitor of HCV replication. The replicon assay system includes Neomycin Phosphotransferase (NPT) as a component of the replicon itself in order to detect the transcription of replicon gene products in the host cell. Cells in which the HCV replicon is actively replicating have high levels of NPT; the level of NPT is proportional to HCV replication. […] The NPT level of each sample is measured using a captured ELISA.
# A protocol for testing compounds for the ability to inhibit viral replication of the Hepatitis C replicon cultured cells in which the replicon construct has been incorporated, follows.
# The HCV replicon contains, 5′-3′, the HCV-IRES, the neomycin phosphotransferase (neo) gene, the IRES of encephalomyocarditis virus, which directs translation of HCV sequences NS3 to NS5B, and the 3′-NTR. The sequence of the HCV replicon has been deposited in GenBank (Accession no. AJ242652).
# The replicon is transfected into Huh-7 cells using standard methods such as electroporation.
# The equipment and materials include, but are not limited to, Huh-7 HCV replicon-containing cells, maintenance media (DMEM (Dulbecco's modified Eagle media) supplemented with 10% FBS, L-glutamine, non-essential amino acids, penicillin (100 units/ml), streptomycin (100 micrograms/ml), and 500 micrograms/ml of Geneticin (G418), screening media (DMEM supplemented with 10% FBS, L-glutamine, non-essential amino acids, penicillin (100 units/ml) and streptomycin (100 micrograms/ml)), 96 well tissue culture plates (flat bottom), 96 well plates (U bottom for drug dilution), Interferon alpha for positive control, fixation reagent (such as methanol:acetone), primary antibody (rabbit anti-NPTII), secondary antibody: Eu-N1 l, and enhancement solution.
# The cells are then seeded onto 96-well plates at a density of 6000-7500 cells/100 microliters/well (6-7.5×10^5 cells/10 ml/plate). The plates are then incubated at 37° C. in a 5% CO2 incubator.
# HCV replicon-containing cells are rinsed with once PBS once; 2 mls of trypsin are then added. Cells are incubated at 37° C. in a 5% CO2 incubator for 3-5 minutes. 10 mls of complete medium is added to stop the reaction. Cells are blown gently, put into a 15 ml tube, and spun at 1200 rpm for four minutes. The trypsin/medium solution is removed and 5 mls of medium (500 ml DMEM (high glucose)) from BRL catalog #12430-054; 50 mls 10% FBS, 5% Geneticin G418 (50 mg/ml, BRL catalog #10131-035), 5 ml MEM non-essential amino acids (100×BRL #11140-050) and 5 ml pen-strep (BRL #15140-148) is added. The cells and media are mixed carefully
# Cells are plated with screening medium (500 ml DMEM (BRL #21063-029), 50 ml FBS (BRL #10082-147) and 5 ml MEM non-essential amino acid (BRL #11140-050) at 6000-7500 fcells/100 μl/well of 96 well plate (6-7.5×10^5 cells/10 ml/plate). Plates are placed into 37° C. 5% CO2 incubator overnight.
# The following morning, drugs (test compounds or interferon alpha) are diluted in 96 well U bottom plates with media or DMSO/media, depending on the final concentration chosen for screening. Generally for 6 concentrations of each test compounds ranging from 10 micromolar to 0.03 micromolar are applied. […]
row,Compound,EC50 [nM]
1,"COc1ccc2c(O[C@@H]3C[C@H]4C(=O)N[C@]5(C(=O)NS(=O)(=O)C6CC6)C[C@H]5/C=C\CCCCC[C@H](CC(=O)N5CCC(C(F)(F)F)CC5)C(=O)N4C3)cc(-c3nc(C(C)C)cs3)nc2c1C [Compound 126, (2R,6R,14aR,16aS,Z)-N-(cyclopropylsulfonyl)-2-(2-(4-isopropylthiazol-2-yl)-7-methoxy-8-methylquinolin-4-yloxy)-5,16-dioxo-6-(2-oxo-2-(4-(trifluoromethyl)piperidin-1-yl)ethyl)-1,2,3,5,6,7,8,9,10,11, 13a,14,14a,15,16,16a-hexadecahydrocyclopropa [e]pyrrolo[1,2-a][1,4] diazacyclopentadecine-14a-carboxamide]",< 1000
2,"COc1ccc2c(O[C@@H]3C[C@H]4C(=O)N[C@]5(C(=O)NS(=O)(=O)C6CC6)C[C@H]5/C=C\CCCCC[C@H](CC(=O)N5CCC(F)CC5)C(=O)N4C3)cc(-c3ccccn3)nc2c1Cl [Compound 101, (2R,6R,14aR,16aS,Z)-2-(8-chloro-7-methoxy-2-(pyridin-2-yl)quinolin-4-yloxy)-N-(cyclopropylsulfonyl)-6-(2-(4-fluoropiperidin-1-yl)-2-oxoethyl)-5,16-dioxo-1,2,3,5,6,7,8,9,10,11, 13a,14,14a,15,16,16a-hexadecahydrocyclopropa [e]pyrrolo[1,2-a][1,4] diazacyclopentadecine-14a-carboxamide]",< 1000
3,"COc1ccc2c(O[C@@H]3C[C@H]4C(=O)N[C@]5(C(=O)NS(=O)(=O)C6CC6)C[C@H]5/C=C\CCCCC[C@H](CC(=O)N5CCC(F)(F)C5)C(=O)N4C3)cc(-c3ccccc3)nc2c1 [Compound 63, (2R,6R,13aS, 14aR,16aS,Z)-N-(cyclopropylsulfonyl)-6-(2-(3,3 - difluoropyrrolidin-1-yl)-2-oxoethyl)-2-(7-methoxy-2-phenylquinolin-4-yloxy)-5,16-dioxo-1,2,3,5,6,7,8,9,10,11, 13a,14,14a,15,16,16a-hexadecahydrocyclopropa [e]pyrrolo[1,2-a][1,4] diazacyclopentadecine-14a-carboxamide]",< 1000
4,"COc1ccc2c(O[C@@H]3C[C@H]4C(=O)N[C@]5(C(=O)NS(=O)(=O)C6CC6)C[C@H]5/C=C\CCCCC[C@H](CC(=O)N5CCCC(F)(F)C5)C(=O)N4C3)nc(-c3ccccn3)cc2c1Cl [Compound 130, (2R,6R,14aR,16aS,Z)-2-(5-chloro-6-methoxy-3-(pyridin-2-yl)isoquinolin-1-yloxy)-N-(cyclopropylsulfonyl)-6-(2-(3,3-difluoropiperidin-1-yl)-2-oxoethyl)-5,16-dioxo-1,2,3,5,6,7,8,9,10,11, 13a,14,14a,15,16,16a-hexadecahydrocyclopropa [e]pyrrolo[1,2-a][1,4] diazacyclopentadecine-14a-carboxamide]",< 1000
5,"COc1ccc2c(O[C@@H]3C[C@H]4C(=O)N[C@]5(C(=O)NS(=O)(=O)C6CC6)C[C@H]5/C=C\CCCCC[C@H](CC(=O)N5CCC(C(F)(F)F)CC5)C(=O)N4C3)cc(-c3ccccn3)nc2c1Cl [Compound 92, (2R,6R,14aR,16aS,Z)-2-(8-chloro-7-methoxy-2-(pyridin-2-yl)quinolin-4-yloxy)-N-(cyclopropylsulfonyl)-5,16-dioxo-6-(2-oxo-2-(4-(trifluoromethyl)piperidin-1-yl)ethyl)-1,2,3,5,6,7,8,9,10,11, 13a,14,14a,15,16,16a-hexadecahydrocyclopropa [e]pyrrolo[1,2-a][1,4] diazacyclopentadecine-14a-carboxamide]",< 1000
6,"COc1ccc2c(O[C@@H]3C[C@H]4C(=O)N[C@]5(C(=O)NS(=O)(=O)C6CC6)C[C@H]5/C=C\CCCCC[C@H](CC(=O)NC(C)(C)C)C(=O)N4C3)cc(-c3ccccc3)nc2c1 [Compound 72, (2R,6R,13aS,14aR, 16aS,Z)-6-(2-(tert-butylamino)-2-oxoethyl)-N-(cyclopropylsulfonyl)-2-(7-methoxy-2-phenylquinolin-4-yloxy)-5,16-dioxo-1,2,3,5,6,7,8,9,10,11, 13a,14,14a,15,16,16a-hexadecahydrocyclopropa [e]pyrrolo[1,2-a][1,4] diazacyclopentadecine-14a-carboxamide]",< 1000

# — patent publication US8697641B2, “4-amino-4-oxobutanoyl peptide cyclic analogues, inhibitors of viral replication” (Achillion Pharmaceuticals, Inc., priority 2008, dated 2014)
